Laboratory results as given in ChEMBL document CHEMBL5303711, “ECBD screening data for assay EOS300108” (2023).
Structures can show the parent of a compound that is named as a salt. Calls of active or inactive are those of the source. How the calls were made is not given here.

Experiment: Cytotoxicity activity against human HepG2 cells assessed by CellTiter-Glo luminescent cell viability assay.
Format: toxicity, cell-based
Parameters: assay stage confirmatory assay, source tissue liver
Details: HepG2 cells, read-out: IC50 relative

SMILES | CC50
Cc1ccc(S(=O)(=O)c2cn(C)c3cc(N4CCN(C)CC4)c(F)cc3c2=O)cc1 | 15.1 µM (inactive)
COc1ccc(/C=C\c2cc(OC)c(OC)c(OC)c2)cc1O [COMBRETASTATIN A4] | 1.4 µM (inactive)
CC(C)N1CCC(NC(=O)CN2CCCN(Cc3ccccc3)c3ccccc32)CC1 | 12.4 µM (active)
Cc1ccc(C(=O)Nc2ccc(CN3CCN(C)CC3)c(C(F)(F)F)c2)cc1C#Cc1cnc2cccnn12 [PONATINIB] | 0.3 µM (active)
Clc1cccc(N2CCN(C[C@H]3CCC4(CNC4)O3)CC2)c1 | 7 µM (active)
Cc1ccc([C@H](CC(=O)c2ccco2)SCCO)cc1 | 11.4 µM (active)
Cc1cc(NC(=O)CN2CCCC[C@@H]2C)n(C)n1 | 50 µM (inactive)
CCc1nn(CCCN2CCN(c3cccc(Cl)c3)CC2)c(=O)n1CCOc1ccccc1 [NEFAZODONE HYDROCHLORIDE] | 14.4 µM (active)
CC(=O)c1cnc2ccc(-c3cc(Cl)c(O)c(Cl)c3)nc2c1N[C@H]1CC[C@H](CN(C)C)CC1 | 0.1 µM (active)
NCC1CN(CC2CC2)CC12CCCCC2 (stereo not drawn) | 13.1 µM (inactive)
O=C(NO)c1ccc(I)cc1 | 12.2 µM (active)
Cn1nc(-c2ccc(C(F)(F)F)cc2)nc2c(=O)n(C)c(=O)nc1-2 | 1.1 µM (active)
N#Cc1ccc(O[C@@H]2c3ccccc3C[C@H]2N2CCC[C@@H](N)C2)c(Cl)c1 | 4.9 µM (active)
CC(C)(C)c1ccc(C(O)CCCN2CCC(C(O)(c3ccccc3)c3ccccc3)CC2)cc1 (stereo not drawn) [TERFENADINE] | 3.1 µM (active)
C[C@]12CCC(=O)C=C1CC[C@@H]1[C@@H]2CC[C@]2(C)C(c3cccnc3)=CC[C@@H]12 | 28 µM (inactive)
O=S(=O)(c1ccc(N2CCN(c3ncnc4c3oc3ccccc34)CC2)nc1)N1CCOCC1 | 3.3 µM (active)
CCN(CC)C(=S)SSC(=S)N(CC)CC | 0.3 µM (inactive)
O[C@@H](CNCc1cc2ccccc2nc1N1CCCCC1)CN1CCCC1 | 9.8 µM (active)
Cc1ccc(-c2cn3nc(N4CCC(C(=O)NCCCN5CCOCC5)CC4)sc3n2)cc1 | 5.1 µM (active)
Clc1ccc(CSC(Cn2ccnc2)c2ccc(Cl)cc2Cl)cc1 (stereo not drawn) [SULCONAZOLE NITRATE] | 14.9 µM (inactive)
CCOc1cc2ncc(C#N)c(Nc3ccc(OCc4ccccn4)c(Cl)c3)c2cc1NC(=O)/C=C/CN(C)C [NERATINIB] | 9.9 µM (inactive)
CCCNC(=O)N1CC(Oc2ccc(-c3noc(C4CC4)n3)cc2)C1 | 6.1 µM (active)

SMILES | CC50
O=C(c1ccc(F)c(F)c1Nc1ccc(I)cc1F)N1CC(O)(C2CCCCN2)C1 (racemic) | < 0.1 µM (active)
CC(=O)N1CCN(c2ccc(OC[C@@H]3CO[C@@](Cn4ccnc4)(c4ccc(Cl)cc4Cl)O3)cc2)CC1 [LEVOKETOCONAZOLE] | 11.6 µM (active)
COc1ncccc1NC(=O)c1n[nH]c2ccccc12 | 0.1 µM (active)
c1ccc(-c2cn3c(n2)CCc2ccc4cccnc4c2-3)cc1 | 4 µM (active)
CS(=O)(=O)c1ncc(Br)c(C(=O)Nc2ccc(F)cc2)n1 | 2.8 µM (active)
O=[N+]([O-])c1ccc(Sc2cccc[n+]2[O-])c2nonc12 | 0.6 µM (active)
O=C(N[C@H]1CN2CCC1CC2)c1cc2cccc(Cl)c2s1 | 5.9 µM (active)
CC[C@@H]1[C@H](F)C(=O)N[C@@H]1COc1nccc2cc(C(N)=O)c(OC)cc12 [ZIMLOVISERTIB] | 6 µM (active)
CCN(CC)CCN(C(C)=O)c1nc2cc(C)cc(C)c2s1 | 8.6 µM (active)
NC(=O)c1cc(NC(=O)CCSc2ccccc2Br)[nH]n1 | 13.6 µM (active)
O=c1[nH]c(Cc2ccc(-n3cccn3)cc2)nc2ccccc12 | 2.1 µM (active)
CCCCNc1ncc(C(=O)NCc2ccc(-n3ccnc3)cc2)c(N[C@H]2CC[C@H](O)CC2)n1 | 2.8 µM (active)
Cc1cc(N)n(S(=O)(=O)c2oc(-c3ccccc3)nc2C#N)n1 | 7.6 µM (active)
COc1cc2c(cc1Cc1cccc(Cl)c1F)c(=O)c(C(=O)O)cn2[C@H](CO)C(C)C | 10.2 µM (active)
Cc1ncc(-c2ccnc(Nc3ccc(S(C)(=O)=O)cc3)n2)n1C(C)C [AZD-5438] | 0.6 µM (active)
O=C(Cn1ncc(Cl)c(Cl)c1=O)N1CCC[C@H]1c1ccc2c(c1)OCCCO2 | 7.1 µM (active)
CCN1CCN(Cc2ccc(-c3cc4c(N[C@H](C)c5ccccc5)ncnc4[nH]3)cc2)CC1 [AEE-788] | 4.1 µM (active)
C=CC(=O)Nc1ccc(CN2C(=O)N(c3cc(OC)cc(OC)c3)Cc3cnc(Nc4ccc(N5CCN(C)CC5)cc4)nc32)cc1 | 3.7 µM (active)
Cc1nn(-c2cccc(Cl)c2)nc1C(=O)N(C)C1CCNCC1 | 11.4 µM (active)
Oc1cc2c(cc1C(c1ccc(C(F)(F)F)cc1)N1CCOCC1)OCO2 (stereo not drawn) | 26 µM (inactive)
Cc1cccc2nc(C(=O)Nc3cccc4cccnc34)cn12 | 0.1 µM (active)
COc1cccc(OCCCN)c1-c1cc(Nc2cnc(C#N)cn2)n[nH]1 | 0.3 µM (active)

SMILES | CC50
COc1ccc2c(c1)C=C(C(=O)NCc1ccc(OC)c(OC)c1)CO2 | 6.3 µM (active)
CN(C)C1CCN(CCNC(=O)Nc2ccc(C3CC3)c(F)c2)CC1 | 4.5 µM (active)
Cc1cc(-c2cc(O)ccc2Cl)cc2nnc(Nc3ccc(OCCN4CCCC4)cc3)nc12 | 1.4 µM (active)
O=C1COc2cc(C(=O)Nc3nc(-c4ccccn4)cs3)ccc2N1 | 1.5 µM (active)
CC(C)OCCCN[C@H]1CS(=O)(=O)C[C@@H]1S(=O)(=O)c1ccc(Cl)cc1 | 16 µM (active)
CCc1ccc(NC(=O)N2CCN(c3cc(-n4ccc(C)n4)ncn3)CC2)cc1 | 46.2 µM (inactive)
COc1ccc(Nc2nccc(-c3cccnc3)n2)cc1 | 9.9 µM (active)
CN(C)CC1CCN(Cc2[nH]c3ccccc3c2Cl)C1 (stereo not drawn) | 5.8 µM (active)
CC(C)Cn1cnc(S(=O)(=O)N2CCC[C@@H]2COc2ccc(F)cc2)c1 | 8.4 µM (active)
CC(C)n1ncc2cc(NC(=O)c3cc4ccccc4cc3O)cnc21 | 10 µM (inactive)
CCN(CC)CCNC(=O)C1CCN(c2nn3cc(-c4ccc(OC)cc4)nc3s2)CC1 | 2.7 µM (active)
Cc1ccc(-c2cnn3c(N4CCN(CCO)CC4)cc(C)nc23)cc1 | 8.9 µM (active)
Cc1ccc(Cc2cnc(NC(=O)NC[C@H](C)CN3CCN(C)CC3)s2)cc1 | 7.6 µM (active)
Cc1ccc2c(c1)C1(CCN(CCc3nc(-c4ccccc4)oc3C)CC1)OC(=O)N2 | 11.2 µM (active)
CC(C)c1ccc(-c2cc(=O)c3ccccc3o2)cc1 | 11.1 µM (active)
CNCc1ccc(-c2cc(-c3nc(-c4ccc(S(=O)(=O)C(C)C)cc4)cnc3N)on2)cc1 [BERZOSERTIB] | 2.7 µM (active)
Nc1ncc(-c2cnn(CCO)c2)c2scc(-c3ccc(NC(=O)Nc4cccc(F)c4)cc3)c12 [ILORASERTIB] | 2.8 µM (active)
Cc1cc(C)cc(OC[C@@H](O)CN2CCC(C(=O)Nc3ccccc3)CC2)c1 | 12.1 µM (active)
Cn1c(Nc2ccc(C(F)(F)F)cc2)nc2cc(Oc3ccnc(-c4ncc(C(F)(F)F)[nH]4)c3)ccc21 [RAF-265] | 1.5 µM (active)
N#Cc1ccc(COC[C@H]2O[C@@H](n3c(NCc4ccc(Cl)c(Cl)c4)nc4c(N)ncnc43)[C@H](O)[C@@H]2O)cc1 | 3 µM (active)
COc1ccc(N2C(=O)/C(=C\c3ccc(O)c(Br)c3)SC2=S)cc1 | 10.3 µM (active)
Cn1nc(C(=O)Nc2ccc(Oc3ccc(F)cc3)cn2)ccc1=O | 6.7 µM (active)

SMILES | CC50
Cc1ccc(-c2noc(-c3cccc(OCC(=O)N4CCN(C)CC4)c3)n2)cc1 | 6.3 µM (active)
O=S1(=O)CCCN1c1ccc(CNc2ncnc3ccccc23)cc1F | 2.2 µM (active)
Cc1ccc(S(=O)(=O)NCCCNC(=O)c2c3c(nn2C)CCCC3)cc1 | 4.6 µM (active)
Cc1cc(Nc2ccc(NC(=O)c3ccc(Nc4ccnc5ccccc45)cc3)cc2)nc(N)n1 | 0.4 µM (active)
O=C(NCCO)c1cccc(-c2cc(Nc3ccc(OC(F)(F)F)cc3)ncn2)c1 | 19.4 µM (inactive)
COc1cc(C(=O)NC2CCN(C)CC2)ccc1Nc1ncc2c(n1)N(C1CCCC1)CC(F)(F)C(=O)N2C | 2.9 µM (active)
CC(C)NC[C@@H](C(=O)N1CCN(c2ncnc3c2[C@H](C)C[C@H]3O)CC1)c1ccc(Cl)cc1 [IPATASERTIB] | 13 µM (active)
N#Cc1ccc(NC(=O)NCc2cnc3scc(-c4ccc(Br)cc4)n23)cc1 | 35 µM (active)
CCCCN(Cc1ccc(C(=O)NO)cc1)C(=O)Nc1ccccc1 [NEXTURASTAT A] | 6.9 µM (active)
CCn1c(=O)c(C)nc2cc(C(=O)N3CCN(Cc4ccc(OC)cc4)CC3)ccc21 | 7.3 µM (active)
CC(=O)N1CCCSc2ccc(S(=O)(=O)NCCCc3ccccc3)cc21 | 12.2 µM (active)
O=C(C1CCCC1)N1CC(Oc2ccc(-c3noc(C4CCOCC4)n3)cc2)C1 | 3.2 µM (active)
Cn1cc(/C=C2\C(=O)Nc3cccnc32)c2ccccc21 | 8.1 µM (inactive)
Cn1c(C#N)ccc1-c1ccc2c(c1)C(C)(C)OC(=S)N2 [TANAPROGET] | 4.6 µM (active)
CC[C@@H](N)CNc1ccnc(-c2cc(-c3cnn(C)c3)ccc2O)n1 | 1.2 µM (active)
O=C(NC1CCCC1)N1CC(Oc2ccc(-c3noc(-c4cccnc4)n3)cc2)C1 | 6.9 µM (active)
Cn1cc(-c2cnn3c(N)c(Br)c([C@@H]4CCCNC4)nc23)cn1 [SCH-900776] | 10.9 µM (active)
CC[C@H](C)C(=O)O[C@H]1CCC=C2C=C[C@H](C)[C@H](CC[C@@H]3C[C@@H](O)CC(=O)O3)[C@H]21 [MEVASTATIN] | 33.3 µM (inactive)
CN1CCN([C@H]2CC[C@H](n3cc(-c4ccc(Oc5ccccc5)cc4)c4c(N)ncnc43)CC2)CC1 | 1.6 µM (active)
Cc1c(-c2ccc(N3CCc4cccc(C(=O)Nc5nc6ccccc6s5)c4C3)nc2C(=O)O)cnn1CC12CC3CC(CC(C3)C1)C2 | 1 µM (active)
CCS(=O)(=O)N1CCc2ccc(NC(=O)Nc3cccc(F)c3)cc21 | 5.2 µM (active)
COc1ccccc1N1CCN(S(=O)(=O)c2ccc3c4c(cccc24)C(=O)N3)CC1 | 10.8 µM (inactive)
